Values of other authors as cited in PubChem BioAssay AID1259409 (Chemical Carcinogenesis Research Information System (CCRIS), 2018).

Test system: rodent chemically induced tumor inhibition, incidence and multiplicity
Experiment: CCRIS tumor inhibitor studies
Details: for tumour outcome (control, treated, inhibition, significance): Promoter: NONE USED; for outcome: Carcinogen: 7,12-Dimethylbenz[a]anthracene, Species: Mouse

O=C(CC(=O)c1ccccc1)c1ccccc1
tumour outcome (control, treated, inhibition, significance) (Carcinogen: 7,12-DIMETHYLBENZ[A]ANTHRACENE, 57-97-6, Dose [Inhibitor]: 0, 1% IN DIET FOR 22 WK BEGINNING 2 WK PRIOR TO CARCINOGEN DOSE (STUDY DURATION: 22 WK), Route [Inhibitor]: ORAL, Species: MOUSE, Strain/Sex: SENCAR/FEMALE, Target Tissue: Type of Lesion: LYMPHATIC SYSTEM: LYMPHOMA OR LEUKEMIA, Dose [Carcinogen]: 1 MG IN 0.1 ML CORN OIL 1/WK FOR 5 WK): 45%, 0%, 100%, p<0.05 | tumour outcome (control, treated, inhibition, significance) (Carcinogen: 7,12-DIMETHYLBENZ[A]ANTHRACENE, 57-97-6, Dose [Inhibitor]: 0, 1% IN DIET FOR 22 WK BEGINNING 2 WK PRIOR TO CARCINOGEN DOSE (STUDY DURATION: 22WK), Route [Inhibitor]: ORAL, Species: MOUSE, Strain/Sex: SENCAR/FEMALE, Target Tissue: Type of Lesion: MAMMARY GLAND: TUMOR, Dose [Carcinogen]: 1 MG IN 0.1 ML CORN OIL 1/WK FOR 5 WK): 68%, 2%, 97%, p<0.05 | tumour outcome (control, treated, inhibition, significance) (Carcinogen: 7,12-DIMETHYLBENZ[A]ANTHRACENE, 57-97-6, Dose [Inhibitor]: 0, 1% IN DIET FOR 22 WK BEGINNING 2 WK PRIOR TO CARCINOGEN DOSE (STUDY DURATION: 22WK), Route [Inhibitor]: ORAL, Species: MOUSE, Strain/Sex: SENCAR/FEMALE, Target Tissue: Type of Lesion: OVARY:TUMOR, Dose [Carcinogen]: 1 MG IN 0.1 ML CORN OIL 1/WK FOR 5 WK): 20%, 0%, 100%, p<0.05 | outcome (57-97-6, Dose [Inhibitor]: 0, 10 umol 3x/wk for 10 wk, Route [Inhibitor]: Dermal, Strain/Sex: CD-1/Female, Target Tissue: Type of Lesion: Skin: tumor, Dose [Carcinogen]: 200 nmol in 200 ul acetone, once, study duration 11 wk, Promoter: Mirex, 2385-85-5): 37%, 15%, not significant | outcome (57-97-6, Dose [Inhibitor]: 0, 10 umol 3x/wk for 14 wk, Route [Inhibitor]: Dermal, Strain/Sex: CD-1/Female, Target Tissue: Type of Lesion: Skin: tumor, Dose [Carcinogen]: 200 nmol in 200 ul acetone, once, study duration 15 wk, Promoter: Mirex, 2385-85-5): 60%, 40%, not significant | outcome (57-97-6, Dose [Inhibitor]: 0, 10 umol 3x/wk for 18 wk, Route [Inhibitor]: Dermal, Strain/Sex: CD-1/Female, Target Tissue: Type of Lesion: Skin: tumor, Dose [Carcinogen]: 200 nmol in 200 ul acetone, once, study duration 19 wk, Promoter: Mirex, 2385-85-5): 80%, 70%, not significant | outcome (57-97-6, Dose [Inhibitor]: 0, 1% in diet for 22 wk beginning 2 wk prior to carcinogen dose (study duration: 22wk), Route [Inhibitor]: Oral, Strain/Sex: Sencar/Female, Target Tissue: Type of Lesion: Mammary Gland: Tumor, Dose [Carcinogen]: 1 mg in 0.1 ml corn oil 1/wk for 5 wk, Promoter: None): 3%, 0%, 100% at 3 wk; 38%, 0%, 100% at 9 wk; 55%, 0% at 13 wk; 68%, 3%, 96% at 2

Cc1ccc2oc(=O)ccc2c1
tumour outcome (control, treated, inhibition, significance) (Carcinogen: BENZO[A]PYRENE, 50-32-8, Dose [Inhibitor]: 0.034 MMOL/G IN DIET FOR 5 WK BEGINNING 1 WK PRIOR TO FIRST CARCINOGEN DOSE AND CONTINUING FOR 3 D POST LAST CARCINOGEN, Route [Inhibitor]: ORAL, Species: MOUSE, Strain/Sex: ICR/FEMALE, Target Tissue: Type of Lesion: FORESTOMACH: TUMOR, Dose [Carcinogen]: 1 MG IN 0.2 ML CORN OIL 2/WK FOR 4 WK): 90%, 90%, 0%, not significant

C#C[C@]1(O)CC[C@H]2[C@@H]3CCC4=Cc5oncc5C[C@]4(C)[C@H]3CC[C@@]21C
tumour outcome (control, treated, inhibition, significance) (Carcinogen: 7,12-DIMETHYLBENZ[A]ANTHRACENE, 57-97-6, Dose [Inhibitor]: 0, 2 MG 6 D/WK FOR 169 D BEGINNING 5 D POST CARCINOGEN DOSE (STUDY DURATION: 174 D), Route [Inhibitor]: SUBCUTANEOUS, Species: RAT, Strain/Sex: SPRAGUE-DAWLEY/FEMALE, Target Tissue: Type of Lesion: MAMMARY GLAND: MALIGNANT TUMORS, Dose [Carcinogen]: 20 MG IN 1 ML SESAME OIL ONCE): 91%, 67%, 26%, p<0.05

CC(C)=CCC/C(C)=C/CC/C(C)=C/CC/C=C(\C)CC/C=C(\C)CCC=C(C)C
tumour outcome (control, treated, inhibition, significance) (Carcinogen: BENZO[A]PYRENE, 50-32-8, Dose [Inhibitor]: 25 MG IN 0.1 ML ACETONE 3/WK ADMINISTERED SIMULTANEOUSLY WITH CARCINOGEN FOR DURATION OF STUDY (STUDY DURATION: 440 D), Route [Inhibitor]: DERMAL, Species: MOUSE, Strain/Sex: ICR/FEMALE, Target Tissue: Type of Lesion: SKIN: PAPILLOMA, Dose [Carcinogen]: 5 UG IN 0.1 ML ACETONE 3/WK FOR DURATION OF STUDY): 16/50 (32%), 1/50 (2%), 94%, not calculated | tumour outcome (control, treated, inhibition, significance) (Carcinogen: BENZO[A]PYRENE, 50-32-8, Dose [Inhibitor]: 25 MG IN 0.1 ML ACETONE 3/WK ADMINISTERED SIMULTANEOUSLY WITH CARCINOGEN FOR DURATION OF STUDY (STUDY DURATION: 440 D), Route [Inhibitor]: DERMAL, Species: MOUSE, Strain/Sex: ICR/FEMALE, Target Tissue: Type of Lesion: SKIN: SQUAMOUS CARCINOMA, Dose [Carcinogen]: 5 UG IN 0.1 ML ACETONE 3/WK FOR DURATION OF STUDY): 12/50 (24%), 0/50 (0%), 100%, not calculated

CCN(CC)CCCCOc1ccc(/C(=C(/Cl)c2ccccc2)c2ccccc2)cc1
tumour outcome (control, treated, inhibition, significance) (Carcinogen: N-METHYL-N-NITROSOUREA, 684-93-5, Dose [Inhibitor]: 0, 0.003 MG/KG BW 1/D FOR 90 D BEGINNING 1 WK POST CARCINOGEN DOSE (STUDY DURATION: 90 D), Route [Inhibitor]: GAVAGE, Species: RAT, Strain/Sex: SPRAGUE-DAWLEY/FEMALE, Target Tissue: Type of Lesion: MAMMARY GLAND: CARCINOMA, Dose [Carcinogen]: 50 MG/KG BW ONCE): 100%, 50%, 50%, not calculated | tumour outcome (control, treated, inhibition, significance) (Carcinogen: N-METHYL-N-NITROSOUREA, 684-93-5, Dose [Inhibitor]: 0, 0.01 MG/KG BW 1/D FOR 90 D BEGINNING 1 WK POST CARCINOGEN DOSE (STUDY DURATION: 90 D), Route [Inhibitor]: GAVAGE, Species: RAT, Strain/Sex: SPRAGUE-DAWLEY/FEMALE, Target Tissue: Type of Lesion: MAMMARY GLAND: CARCINOMA, Dose [Carcinogen]: 50 MG/KG BW ONCE): 100%, 30%, 70%, not calculated | tumour outcome (control, treated, inhibition, significance) (Carcinogen: N-METHYL-N-NITROSOUREA, 684-93-5, Dose [Inhibitor]: 0, 0.1 MG/KG BW 1/D FOR 85 D BEGINNING 1 WK POST CARCINOGEN DOSE (STUDY DURATION: 85 D), Route [Inhibitor]: GAVAGE, Species: RAT, Strain/Sex: SPRAGUE-DAWLEY/FEMALE, Target Tissue: Type of Lesion: MAMMARY GLAND: CARCINOMA, Dose [Carcinogen]: 50 MG/KG BW ONCE): 100%, 5%, 95%, not calculated | tumour outcome (control, treated, inhibition, significance) (Carcinogen: N-METHYL-N-NITROSOUREA, 684-93-5, Dose [Inhibitor]: 0, 1 MG/KG BW 1/D FOR 85 D BEGINNING 1 WK POST CARCINOGEN DOSE (STUDY DURATION: 85 D), Route [Inhibitor]: GAVAGE, Species: RAT, Strain/Sex: SPRAGUE-DAWLEY/FEMALE, Target Tissue: Type of Lesion: MAMMARY GLAND: CARCINOMA, Dose [Carcinogen]: 50 MG/KG BW ONCE): 100%, 5%, 95%, not calculated

NCCc1cc(O)c(O)cc1O
tumour outcome (control, treated, inhibition, significance) (Carcinogen: AZOXYMETHANE, 25843-45-2, Dose [Inhibitor]: 0, 42 MG/KG BW IN 0.9% SALINE TWICE ON FIRST DAY THEN 0, 105 MG/KG 1/2 WK FOR DURATION OF STUDY (STUDY DURATION: 35 WK), Dose [Inhibitor]: 0, 42 MG/KG BW IN 0.9% SALINE TWICE ON FIRST DAY THEN 0, 105 MG/KG 1/2 WK FOR DURATION OF STUDY (STUDY DURATION: 35 WK), Route [Inhibitor]: INTRAPERITONEAL, Species: RAT, Strain/Sex: WISTAR/MALE, Target Tissue: Type of Lesion: COLON: TUMOR, Dose [Carcinogen]: 7.4 MG/KG BW IN 0.9% SALINE 1/WK FOR 10 WK): 14/20 (70%), 4/17 (24%), 66%, p<0.02 | tumour outcome (control, treated, inhibition, significance) (Carcinogen: N-METHYL-N'-NITRO-N-NITROSOGUANIDINE, 70-25-7, Dose [Inhibitor]: 0, 42 MG/KG 2/24 HR BEGINNING POST CARCINOGEN TREATMENT THEN 1 WK LATER 105 MG/KG 1/2 WK (STUDY DURATION: 52 WK), Route [Inhibitor]: INTRAPERITONEAL, Species: RAT, Strain/Sex: WISTAR/MALE, Target Tissue: Type of Lesion: STOMACH: ADENOCARCINOMA, Dose [Carcinogen]: 75 UG/ML IN DRINKING WATER FOR 25 WK): 16/20 (80%), 9/20 (45%), 44%, p<0.05
